Data on 14 compounds can be found in US8461107B2 (Merck Sharp & Dohme Corp., priority 2008, dated 2013).

For orientation: Ki means a measure of affinity in units of concentration, obtained from inhibition or displacement.

The experiment concerns the target T1, HCV genotype 1b (BK) NS3 modified with a R155K mutation (Hepatitis C virus genotype 1b, UniProt P26663, R1181K).
T1 construct: HCV genotype 1b (BK) NS3 modified with a R155K mutation
The experiment can be described thus: HCV NS3 protease time-resolved fluorescence (TRF) assay, NS3 protease 1b R155K Ki activity. The class given is biochemical. Conditions: HCV genotype 1b (BK) NS3 with R155K mutation; TRF peptide substrate 100 nM; Ki derived from IC50. Put shortly:
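Pre-incubation of NS3/NS4A protease (genotype 1b BK, R155K) with inhibitor for 30 min, then 1 h at room temperature with 100 nM TRF peptide substrate in pH 7.5 HEPES buffer with 10 mM DTT. Reaction quenched with pH 5.5 MES; time-resolved fluorescence read (ex 340/em 615 nm). Ki derived from four-parameter IC50 fit via IC50=Ki(1+[S]/KM).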
As to `C=C[C@@H]1C[C@]1(NC(=O)[C@@H]1C[C@@H]2CN1C(=O)[C@H](C1CCCC1)NC(=O)O[C@@H]1CCC[C@H]1C/C=C/CCn1c(cc3ccc(F)cc3c1=O)O2)C(=O)NS(=O)(=O)C1CC1` [(3aR,7S,10S,12R,23E,25aS)-7-cyclopentyl-N-((1R,2S)-1-{[(cyclopropylsulfonyl)amino]carbonyl}-2-vinylcyclopropyl)-17-fluoro-5,8,19-trioxo-1,2,3,3a,5,6,7,8,11,12,21,22,25,25a-tetradecahydro-10H,19H-9,12-methanocyclopenta[18,19][1,10,3,6,12]dioxatriazacyclononadecino[12,11-b]isoquinoline-10-carboxamide], the Ki was in the range of 0.1 to 0.5 nM.
In turn, `CC[C@@H]1C[C@]1(NC(=O)[C@@H]1C[C@@H]2CN1C(=O)[C@H](C(C)(C)C)NC(=O)O[C@@H]1CCC[C@H]1C/C=C/CCn1c(cc3cc(Cl)ccc3c1=O)O2)C(=O)NS(=O)(=O)C1CC1` [(3aR,7S,10S,12R,23E,25aS)-7-tert-butyl-16-chloro-N-((1R,2R)-1-{[(cyclopropylsulfonyl)amino]carbonyl}-2-ethylcyclopropyl)-5,8,19-trioxo-1,2,3,3a,5,6,7,8,11,12,21,22,25,25a-tetradecahydro-10H,19H-9,12-methanocyclopenta[18,19][1,10,3,6,12]dioxatriazacyclononadecino[12,11-b]isoquinoline-10-carboxamide] registered a Ki of 0.1 to 0.5 nM.
As for `C=C[C@@H]1C[C@]1(NC(=O)[C@@H]1C[C@@H]2CN1C(=O)[C@H](C(C)(C)C)NC(=O)O[C@@H]1CCC[C@H]1C/C=C/CCn1c(cc3cc(Cl)ccc3c1=O)O2)C(=O)NS(=O)(=O)C1CC1` [(3aR,7S,10S,12R,23E,25aS)-7-tert-butyl-16-chloro-N-((1R,2S)-1-{[(cyclopropylsulfonyl)amino]carbonyl}-2-vinylcyclopropyl)-5,8,19-trioxo-1,2,3,3a,5,6,7,8,11,12,21,22,25,25a-tetradecahydro-10H,19H-9,12-methanocyclopenta[18,19][1,10,3,6,12]dioxatriazacyclononadecino[12,11-b]isoquinoline-10-carboxamide], the figure is less than 0.1 nM.
As for `C=C[C@@H]1C[C@]1(NC(=O)[C@@H]1C[C@@H]2CN1C(=O)[C@H](C(C)(C)C)NC(=O)O[C@@H]1CCC[C@H]1C/C=C/CCn1c(cc3ccccc3c1=O)O2)C(=O)NS(=O)(=O)C1CC1` [(3aR,7S,10S,12R,23E,25aS)-7-tert-butyl-N-((1R,2S)-1-{[(cyclopropylsulfonyl)amino]carbonyl}-2-vinylcyclopropyl)-5,8,19-trioxo-1,2,3,3a,5,6,7,8,11,12,21,22,25,25a-tetradecahydro-10H,19H-9,12-methanocyclopenta[18,19][1,10,3,6,12]dioxatriazacyclononadecino[12,11-b]isoquinoline-10-carboxamide], the Ki is less than 0.1 nM.
The result for `C=C[C@@H]1C[C@]1(NC(=O)[C@@H]1C[C@@H]2CN1C(=O)[C@H](C(C)(C)C)NC(=O)O[C@@H]1CCC[C@H]1C/C=C/CCn1c(cc3cc(OC)ccc3c1=O)O2)C(=O)NS(=O)(=O)C1CC1` [(3aR,7S,10S,12R,23E,25aS)-7-tert-butyl-N-((1R,2S)-1-{[(cyclopropylsulfonyl)amino]carbonyl}-2-vinylcyclopropyl)-16-methoxy-5,8,19-trioxo-1,2,3,3a,5,6,7,8,11,12,21,22,25,25a-tetradecahydro-10H,19H-9,12-methanocyclopenta[18,19][1,10,3,6,12]dioxatriazacyclononadecino[12,11-b]isoquinoline-10-carboxamide] reads 0.1 to 0.5 nM; that for `CC[C@@H]1C[C@]1(NC(=O)[C@@H]1C[C@@H]2CN1C(=O)[C@H](C1CCCCC1)NC(=O)O[C@@H]1CCC[C@H]1C/C=C/CCn1c(cc3cc(Cl)ccc3c1=O)O2)C(=O)NS(=O)(=O)C1CC1` [(3aR,7S,10S,12R,23E,25aS)-16-chloro-7-cyclohexyl-N-((1R,2R)-1-{[(cyclopropylsulfonyl)amino]carbonyl}-2-ethylcyclopropyl)-5,8,19-trioxo-1,2,3,3a,5,6,7,8,11,12,21,22,25,25a-tetradecahydro-10H,19H-9,12-methanocyclopenta[18,19][1,10,3,6,12]dioxatriazacyclononadecino[12,11-b]isoquinoline-10-carboxamide], 0.1 to 0.5 nM; that for `C=C[C@@H]1C[C@]1(NC(=O)[C@@H]1C[C@@H]2CN1C(=O)[C@H](C1CCCCC1)NC(=O)O[C@@H]1CCC[C@H]1C/C=C/CCn1c(cc3cc(Cl)ccc3c1=O)O2)C(=O)NS(=O)(=O)C1CC1` [(3aR,7S,10S,12R,23E,25aS)-16-chloro-7-cyclohexyl-N-((1R,2S)-1-{[(cyclopropylsulfonyl)amino]carbonyl}-2-vinylcyclopropyl)-5,8,19-trioxo-1,2,3,3a,5,6,7,8,11,12,21,22,25,25a-tetradecahydro-10H,19H-9,12-methanocyclopenta[18,19][1,10,3,6,12]dioxatriazacyclononadecino[12,11-b]isoquinoline-10-carboxamide], less than 0.1 nM.
The result for `C=C[C@@H]1C[C@]1(NC(=O)[C@@H]1C[C@@H]2CN1C(=O)[C@H](C1CCCC1)NC(=O)O[C@@H]1CCC[C@H]1C/C=C/CCn1c(cc3cc(Cl)ccc3c1=O)O2)C(=O)NS(=O)(=O)C1CC1` [(3aR,7S,10S,12R,23E,25aS)-16-chloro-7-cyclopentyl-N-((1R,2S)-1-{[(cyclopropylsulfonyl)amino]carbonyl}-2-vinylcyclopropyl)-5,8,19-trioxo-1,2,3,3a,5,6,7,8,11,12,21,22,25,25a-tetradecahydro-10H,19H-9,12-methanocyclopenta[18,19][1,10,3,6,12]dioxatriazacyclononadecino[12,11-b]isoquinoline-10-carboxamide] reads less than 0.1 nM; that for `CC[C@@H]1C[C@]1(NC(=O)[C@@H]1C[C@@H]2CN1C(=O)[C@H](C1CCCC1)NC(=O)O[C@@H]1CCC[C@H]1CCCCCn1c(nc3ccccc3c1=O)O2)C(=O)NS(=O)(=O)C1CC1` [(3aR,7S,10S,12R,25aR)-7-cyclopentyl-N-((1R,2R)-1-{[(cyclopropylsulfonyl)amino]carbonyl}-2-ethylcyclopropyl)-5,8,19-trioxo-1,2,3,3a,5,6,7,8,11,12,21,22,23,24,25,25a-hexadecahydro-10H,19H-9,12-methanocyclopenta[18,19][1,10,3,6,12]dioxatriazacyclononadecino[11,12-b]quinazoline-10-carboxamide], 0.1 to 0.5 nM.
`CC[C@@H]1C[C@]1(NC(=O)[C@@H]1C[C@@H]2CN1C(=O)[C@H](C1CCCC1)NC(=O)O[C@@H]1CCC[C@H]1CCCCCn1c(cc3ccccc3c1=O)O2)C(=O)NS(=O)(=O)C1CC1` [(3aR,7S,10S,12R,25aR)-7-cyclopentyl-N-((1R,2R)-1-{[(cyclopropylsulfonyl)amino]carbonyl}-2-ethylcyclopropyl)-5,8,19-trioxo-1,2,3,3a,5,6,7,8,11,12,21,22,23,24,25,25a-hexadecahydro-10H,19H-9,12-methanocyclopenta[18,19][1,10,3,6,12]dioxatriazacyclononadecino[12,11-b]isoquinoline-10-carboxamide] returned a Ki of 0.1 to 0.5 nM.
`CC[C@@H]1C[C@]1(NC(=O)[C@@H]1C[C@@H]2CN1C(=O)[C@H](C1CCCC1)NC(=O)O[C@@H]1CCC[C@H]1CCCCCn1c(nc3cc(-c4ccccc4)ccc3c1=O)O2)C(=O)NS(=O)(=O)C1CC1` [(3aR,7S,10S,12R,25aR)-7-cyclopentyl-N-((1R,2R)-1-{[(cyclopropylsulfonyl)amino]carbonyl}-2-ethylcyclopropyl)-5,8,19-trioxo-16-phenyl-1,2,3,3a,5,6,7,8,11,12,21,22,23,24,25,25a-hexadecahydro-10H,19H-9,12-methanocyclopenta[18,19][1,10,3,6,12]dioxatriazacyclononadecino[11,12-b]quinazoline-10-carboxamide] had a Ki of 0.1 to 0.5 nM.
The result for `CC[C@@H]1C[C@]1(NC(=O)[C@@H]1C[C@@H]2CN1C(=O)[C@H](C1CCCC1)NC(=O)O[C@@H]1CCC[C@H]1CCCCCn1c(nc3cc(OC)ccc3c1=O)O2)C(=O)NS(=O)(=O)C1CC1` [(3aR,7S,10S,12R,25aR)-7-cyclopentyl-N-((1R,2R)-1-{[(cyclopropylsulfonyl)amino]carbonyl}-2-ethylcyclopropyl)-16-methoxy-5,8,19-trioxo-1,2,3,3a,5,6,7,8,11,12,21,22,23,24,25,25a-hexadecahydro-10H,19H-9,12-methanocyclopenta[18,19][1,10,3,6,12]dioxatriazacyclononadecino[11,12-b]quinazoline-10-carboxamide] reads 0.1 to 0.5 nM; that for `CC[C@@H]1C[C@]1(NC(=O)[C@@H]1C[C@@H]2CN1C(=O)[C@H](C1CCCC1)NC(=O)O[C@@H]1CCC[C@H]1CCCCCn1c(cc3cc(OC)ccc3c1=O)O2)C(=O)NS(=O)(=O)C1CC1` [(3aR,7S,10S,12R,25aR)-7-cyclopentyl-N-((1R,2R)-1-{[(cyclopropylsulfonyl)amino]carbonyl}-2-ethylcyclopropyl)-16-methoxy-5,8,19-trioxo-1,2,3,3a,5,6,7,8,11,12,21,22,23,24,25,25a-hexadecahydro-10H,19H-9,12-methanocyclopenta[18,19][1,10,3,6,12]dioxatriazacyclononadecino[12,11-b]isoquinoline-10-carboxamide], 0.1 to 0.5 nM.
The result for `CC[C@@H]1C[C@]1(NC(=O)[C@@H]1C[C@@H]2CN1C(=O)[C@H](C1CCCC1)NC(=O)O[C@@H]1CCC[C@H]1CCCCCn1c(nc3cccc(OC)c3c1=O)O2)C(=O)NS(=O)(=O)C1CC1` [(3aR,7S,10S,12R,25aR)-7-cyclopentyl-N-((1R,2R)-1-{[(cyclopropylsulfonyl)amino]carbonyl}-2-ethylcyclopropyl)-18-methoxy-5,8,19-trioxo-1,2,3,3a,5,6,7,8,11,12,21,22,23,24,25,25a-hexadecahydro-10H,19H-9,12-methanocyclopenta[18,19][1,10,3,6,12]dioxatriazacyclononadecino[11,12-b]quinazoline-10-carboxamide] reads 0.5 to 1 nM.
